Values of other authors as cited in US8754089B2, “Heterocyclic compounds and their uses” (Amgen Inc., priority 2009, dated 2014).

How the values were obtained:
[1] = in vivo; cited from earlier work
[2] = in vivo; cited from earlier work; remark: listed apart in the source
protein kinases = settings: cited from earlier work
[3] = ovalbumin-induced airway inflammation; cited from earlier work
p110δ = p110δ (Homo sapiens (Human), UniProt O00329); settings: cited from earlier work
neutrophil [4] = settings: cited from earlier work
neutrophil [5] = settings: cited from earlier work; remark: listed apart in the source

Sequence of p110δ (O00329 whole entry, looked up, species assumed): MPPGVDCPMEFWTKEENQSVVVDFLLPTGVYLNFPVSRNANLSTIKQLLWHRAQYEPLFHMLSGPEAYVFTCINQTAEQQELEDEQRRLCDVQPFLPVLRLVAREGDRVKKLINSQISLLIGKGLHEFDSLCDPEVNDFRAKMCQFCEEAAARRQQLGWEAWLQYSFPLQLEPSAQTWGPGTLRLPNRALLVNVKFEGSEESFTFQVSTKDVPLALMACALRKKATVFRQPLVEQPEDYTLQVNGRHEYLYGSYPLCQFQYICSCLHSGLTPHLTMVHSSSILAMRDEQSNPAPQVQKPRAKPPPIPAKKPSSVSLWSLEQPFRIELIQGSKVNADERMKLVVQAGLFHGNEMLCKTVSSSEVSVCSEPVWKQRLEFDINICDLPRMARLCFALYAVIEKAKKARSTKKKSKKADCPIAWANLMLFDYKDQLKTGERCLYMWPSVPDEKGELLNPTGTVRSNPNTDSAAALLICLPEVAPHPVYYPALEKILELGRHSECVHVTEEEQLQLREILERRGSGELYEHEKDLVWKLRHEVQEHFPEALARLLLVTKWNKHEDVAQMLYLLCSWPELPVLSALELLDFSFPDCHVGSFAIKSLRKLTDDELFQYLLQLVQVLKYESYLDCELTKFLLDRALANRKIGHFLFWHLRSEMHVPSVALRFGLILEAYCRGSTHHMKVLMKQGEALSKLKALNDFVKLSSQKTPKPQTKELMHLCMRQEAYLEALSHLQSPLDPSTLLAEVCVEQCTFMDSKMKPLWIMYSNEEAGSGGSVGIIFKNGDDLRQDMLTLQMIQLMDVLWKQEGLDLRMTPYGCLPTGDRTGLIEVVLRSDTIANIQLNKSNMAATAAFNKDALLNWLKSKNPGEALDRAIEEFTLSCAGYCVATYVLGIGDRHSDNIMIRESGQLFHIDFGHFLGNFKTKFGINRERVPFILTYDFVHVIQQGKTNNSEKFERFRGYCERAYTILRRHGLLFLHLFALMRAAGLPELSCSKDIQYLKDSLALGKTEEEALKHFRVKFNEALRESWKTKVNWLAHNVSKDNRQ
Sequence of p110δ (P27986 whole entry partner, looked up, species assumed): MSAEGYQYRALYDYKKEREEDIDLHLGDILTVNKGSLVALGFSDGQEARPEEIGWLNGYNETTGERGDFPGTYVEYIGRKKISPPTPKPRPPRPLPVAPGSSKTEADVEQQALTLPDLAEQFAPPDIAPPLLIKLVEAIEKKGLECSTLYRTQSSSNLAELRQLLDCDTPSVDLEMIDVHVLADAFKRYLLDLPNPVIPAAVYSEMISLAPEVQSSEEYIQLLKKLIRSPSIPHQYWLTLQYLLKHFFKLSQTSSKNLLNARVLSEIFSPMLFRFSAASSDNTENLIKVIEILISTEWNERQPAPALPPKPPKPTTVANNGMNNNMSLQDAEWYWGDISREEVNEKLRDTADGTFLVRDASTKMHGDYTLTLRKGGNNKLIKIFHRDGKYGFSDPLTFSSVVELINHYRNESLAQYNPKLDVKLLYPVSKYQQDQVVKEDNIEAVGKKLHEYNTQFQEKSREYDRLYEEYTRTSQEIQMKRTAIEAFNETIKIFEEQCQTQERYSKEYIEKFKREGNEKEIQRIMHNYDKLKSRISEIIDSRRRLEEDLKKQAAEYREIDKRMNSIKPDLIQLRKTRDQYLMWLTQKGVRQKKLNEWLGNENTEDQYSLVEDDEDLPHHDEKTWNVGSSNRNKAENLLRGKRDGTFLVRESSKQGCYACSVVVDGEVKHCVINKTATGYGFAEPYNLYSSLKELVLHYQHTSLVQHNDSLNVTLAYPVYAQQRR

O=C1NC(=O)/C(=C\c2ccc3nccnc3c2)S1 [AS 605240]
efficacy in a mouse model of rheumatoid arthritis [1]: efficacious
onset of disease in a model of systemic lupus erythematosis [2]: delay onset of disease

Cc1ccccc1-n1c(Cn2cnc3c(N)ncnc32)nc2cccc(C)c2c1=O [IC87114]
activity against any protein kinases tested (protein kinases): no activity
inflammation and disease in a murine model of asthma [3]: significantly ameliorate inflammation and disease
inhibition of p110δ (p110δ): high nanomolar range (triple digit)

O=c1cc(N2CCOCC2)oc2c(-c3ccccc3)cccc12 [LY294002]
superoxide release (neutrophil [4]): block
neutrophil migration (neutrophil [5]): block

COC[C@H]1OC(=O)c2coc3c2[C@@]1(C)C1=C(C3=O)[C@@H]2CCC(=O)[C@@]2(C)C[C@H]1OC(C)=O [wortmannin]
superoxide release (neutrophil [4]): block
neutrophil migration (neutrophil [5]): block
